“Also recorded” adds a separate entry of the source.
Legend:
[1] = system: gum wounds after tooth extraction (oral lesion); test: CGP powder applied to the gum wound after tooth extraction (single human subject); type: in vivo
Experimental: A tooth was removed from a human, subject and normal packing was applied. There were five (5) stitches put in. Approximately 2 hours after the extraction, the human subject lightly rinsed their mouth and applied powdered CGP granulate of approximately 150 micron size granules directly to the gum and allowed the powder to become wet. Sufficient CGP powder was applied to form a light plaster coating over the wound. This was repeated approximately 6 hours later, before retiring that night, and again the next morning. In all cases, the CGP remained intact and in a cohesive mass on the gum for 15 minutes or more, after which time it slowly dissolved or dispersed and was safely swallowed. At no time during the post-extraction period was there swelling or pain. […] Rapid healing of the gum wounds was observed by a periodontist at the normal stitch-removal visit, 7 days subsequent to tooth removal. The gums had fully closed and were normal pink color in about one week. The periodontist commented that in their 15 years of practice, they had never seen this quality of healing at this speed.

[2] = system: wounds post implant placement (oral lesion); test: Mucosal soft tissue healing in patients post implant placement applying dry CGP (PerioCell), small uncontrolled study; type: in vivo, human
Experimental: Methods according to embodiments of the present invention have been applied to multiple patients post implant placement. The age range of implant patients was 30-65 years. All patients had wound closure with 4-0 silk suture with interrupted knots unless otherwise noted. The patients were instructed to apply dry CGP that has less than 5% moisture in 150 micron granulate (PerioCell™, AkPharma Inc., Pleasantville, N.J. 08232) to the wounds three times daily, approximately 4 hours apart, for the first three days succeeding surgery. Mucosal soft tissue healing was observed and studied in these patients. Patient's compliance with the use instructions for CGP was reported by the patient at the post-operational visit (post-op) and was rated as Excellent, Good, Fair or Poor. In most, but not all cases, patients were reasonably compliant.

[3] = system: rhino mucosal passage inflammation; test: Observation of low concentrations of CGP on rhino mucosal passage inflammation; type: in vivo; details: CGP between 1% and 2% by weight

Substance: calcium glycerophosphate [CGP]
- healing of the gum wounds observed by periodontist at stitch-removal visit ([1]; 7 days subsequent to tooth removal): Rapid healing
- swelling or pain during the post-extraction period ([1]; CGP applied about 2 h and 8 h after extraction and next morning): At no time
- time until gums were normal pink color (self-observation via mirror) ([1]; after the extraction): 36 to 48 h
- correlation between good and excellent compliance with use instructions for CGP and little to no tissue gapping and good wound healing ([2]; all implant patients): definite correlation
- erythema at the wound margin at first post-op visit ([2]; one week post-op (2 weeks for patient 018), one patient per block): very little erythema or edema; also recorded: very little gingival erythema; also recorded: localized mild erythema; also recorded: little to no marginal erythema; also recorded: almost no erythema; also recorded: mild mesial inflammation; also recorded: Mild left side erythema and more moderate right side marginal erythema; also recorded: Mild to moderate marginal erythema
- wound closure / tissue approximation at first post-op visit, noted by periodontist ([2]; one week post-op (2 weeks for patient 018), one patient per block, CGP three times daily for first three days, compliance varies by patient): excellent tissue approximation; also recorded: good tissue approximation; also recorded: beautiful wound approximation; also recorded: perfect wound margin approximation; also recorded: moderate tissue gaps in the left side; also recorded: wound margins came together very well with no gaps; also recorded: greater than 50% gapping of the margins; also recorded: great wound approximation with no gaps; also recorded: great wound approximation; also recorded: slight tissue gap at the mesial aspect; also recorded: no gaps seen; also recorded: excellent wound approximation and perfect closure; also recorded: great heal; also recorded: Wound closure was better in the mandible than in the maxilla; also recorded: Wound closure looked great with no gaps; also recorded: moderate gap at wound margin; also recorded: mild gap at the wound margin; also recorded: good wound approximation; also recorded: better healing on the left side than on the right; also recorded: slight gap at the wound margin; also recorded: rolled wound borders with slight gapping across
- healing / closure at later post-op visit ([2]; three weeks to one month post-op, one patient per block): completely healed; also recorded: complete heal; also recorded: healing was complete; also recorded: things looked better; also recorded: perfectly closed wound; also recorded: implant was removed; also recorded: perfect tissue approximation; also recorded: perfect wound approximation; also recorded: excellent healing; also recorded: perfect closure; also recorded: good approximation; also recorded: all looked great; also recorded: complete closure; also recorded: good closure; also recorded: wound margin looked good; also recorded: wound margins were completely approximated; also recorded: excellent heal; also recorded: perfect heal on the left side
- effect on apparent rhino mucosal passage inflammation [3]: favorably affect

Source: patent US20100305071A1, “METHODS FOR IMPROVING HEALING OF AN ORAL LESION USING A GLYCEROPHOSPHATE SALT” (PRELIEF INC., priority 2007, published 2010)
